The results in this text go back to ChEMBL document CHEMBL3991601, “The target landscape of clinical kinase drugs” (Science, 2017).

The Kd is the concentration at which binding is half-saturated.

Assay [1] addresses T1, Eukaryotic translation initiation factor 5B (Homo sapiens, UniProt O60841).
T1 sequence (O60841 whole entry): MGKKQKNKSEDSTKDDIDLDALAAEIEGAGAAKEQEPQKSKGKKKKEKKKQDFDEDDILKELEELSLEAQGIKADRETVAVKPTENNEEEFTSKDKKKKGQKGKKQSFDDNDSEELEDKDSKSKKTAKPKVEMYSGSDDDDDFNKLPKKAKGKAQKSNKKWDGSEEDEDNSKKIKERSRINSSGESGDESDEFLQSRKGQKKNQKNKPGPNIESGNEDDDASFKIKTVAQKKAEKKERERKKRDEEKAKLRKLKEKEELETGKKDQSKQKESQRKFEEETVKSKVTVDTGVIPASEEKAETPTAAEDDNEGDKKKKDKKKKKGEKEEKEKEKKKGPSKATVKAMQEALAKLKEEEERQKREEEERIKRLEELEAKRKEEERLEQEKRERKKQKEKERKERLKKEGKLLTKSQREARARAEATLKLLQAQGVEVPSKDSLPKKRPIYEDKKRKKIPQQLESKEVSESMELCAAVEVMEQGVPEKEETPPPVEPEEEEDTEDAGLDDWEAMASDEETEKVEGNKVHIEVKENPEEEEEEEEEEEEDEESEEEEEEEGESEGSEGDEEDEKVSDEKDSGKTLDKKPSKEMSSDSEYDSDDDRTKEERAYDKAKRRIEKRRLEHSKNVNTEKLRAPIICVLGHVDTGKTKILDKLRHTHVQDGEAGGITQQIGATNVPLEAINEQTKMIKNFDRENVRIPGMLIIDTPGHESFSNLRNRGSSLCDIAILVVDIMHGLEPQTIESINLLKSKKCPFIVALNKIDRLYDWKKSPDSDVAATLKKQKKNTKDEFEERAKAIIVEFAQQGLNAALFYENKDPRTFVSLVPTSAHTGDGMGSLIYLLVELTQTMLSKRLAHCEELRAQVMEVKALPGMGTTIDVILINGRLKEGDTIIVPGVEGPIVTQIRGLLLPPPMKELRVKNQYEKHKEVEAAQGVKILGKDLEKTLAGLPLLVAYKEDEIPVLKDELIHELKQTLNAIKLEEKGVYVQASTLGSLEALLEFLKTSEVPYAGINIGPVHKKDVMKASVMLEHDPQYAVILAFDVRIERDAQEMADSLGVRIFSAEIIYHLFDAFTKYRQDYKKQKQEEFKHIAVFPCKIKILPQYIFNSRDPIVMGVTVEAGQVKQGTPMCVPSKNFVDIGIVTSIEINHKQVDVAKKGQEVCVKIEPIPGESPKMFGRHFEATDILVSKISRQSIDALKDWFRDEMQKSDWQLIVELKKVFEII

Assay [2] addresses Citron Rho-interacting kinase (Homo sapiens, UniProt O14578).
Assay [3] addresses T2, Interleukin-1 receptor-associated kinase 4 (Homo sapiens, UniProt Q9NWZ3).
T2 sequence (Q9NWZ3 whole entry): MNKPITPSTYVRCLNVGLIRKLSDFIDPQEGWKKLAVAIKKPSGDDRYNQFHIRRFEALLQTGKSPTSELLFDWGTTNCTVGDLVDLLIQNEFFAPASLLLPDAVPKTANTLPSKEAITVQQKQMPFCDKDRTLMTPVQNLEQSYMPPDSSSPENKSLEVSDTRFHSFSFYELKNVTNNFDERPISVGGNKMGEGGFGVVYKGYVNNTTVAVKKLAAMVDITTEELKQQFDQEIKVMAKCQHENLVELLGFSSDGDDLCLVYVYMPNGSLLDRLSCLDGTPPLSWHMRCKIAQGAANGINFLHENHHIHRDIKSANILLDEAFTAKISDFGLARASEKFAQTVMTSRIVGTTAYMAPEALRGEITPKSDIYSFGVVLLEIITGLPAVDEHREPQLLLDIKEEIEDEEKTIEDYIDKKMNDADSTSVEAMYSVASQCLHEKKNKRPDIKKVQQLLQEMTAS

A further assay concerns the target T3, Ephrin type-B receptor 6 (Homo sapiens, UniProt O15197).
T3 sequence (O15197 whole entry): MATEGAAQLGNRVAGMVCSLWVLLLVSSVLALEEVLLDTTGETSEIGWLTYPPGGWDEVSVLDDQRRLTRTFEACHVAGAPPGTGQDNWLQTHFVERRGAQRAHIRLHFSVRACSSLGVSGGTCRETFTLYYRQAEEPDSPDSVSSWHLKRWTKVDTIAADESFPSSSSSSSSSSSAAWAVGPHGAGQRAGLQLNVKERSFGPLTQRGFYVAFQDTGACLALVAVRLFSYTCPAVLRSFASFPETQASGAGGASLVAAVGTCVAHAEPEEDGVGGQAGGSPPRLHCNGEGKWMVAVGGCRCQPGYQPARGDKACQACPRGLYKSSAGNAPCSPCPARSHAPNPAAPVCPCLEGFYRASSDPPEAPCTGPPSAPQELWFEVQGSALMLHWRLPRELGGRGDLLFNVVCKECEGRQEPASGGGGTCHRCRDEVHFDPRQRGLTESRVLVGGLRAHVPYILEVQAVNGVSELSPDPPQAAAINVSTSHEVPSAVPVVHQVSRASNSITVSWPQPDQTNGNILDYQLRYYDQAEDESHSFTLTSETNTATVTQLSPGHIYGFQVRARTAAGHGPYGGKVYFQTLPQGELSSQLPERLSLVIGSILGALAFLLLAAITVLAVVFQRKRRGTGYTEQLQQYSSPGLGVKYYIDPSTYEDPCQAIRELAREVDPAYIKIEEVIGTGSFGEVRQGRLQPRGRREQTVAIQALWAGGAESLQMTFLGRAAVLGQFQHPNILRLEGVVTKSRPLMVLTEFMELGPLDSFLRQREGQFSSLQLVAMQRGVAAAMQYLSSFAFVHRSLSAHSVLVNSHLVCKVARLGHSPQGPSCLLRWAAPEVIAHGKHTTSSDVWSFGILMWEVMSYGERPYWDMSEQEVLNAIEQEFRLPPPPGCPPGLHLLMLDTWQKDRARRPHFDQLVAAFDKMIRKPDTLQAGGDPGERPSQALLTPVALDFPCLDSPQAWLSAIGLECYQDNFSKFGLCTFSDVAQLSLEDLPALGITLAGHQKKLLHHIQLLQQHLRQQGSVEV

Assay [4] deals with Bone morphogenetic protein receptor type-1A (Homo sapiens, UniProt P36894).

SMILES strings stand for the structures. Active and inactive are the calls of the source. Cut-off read from the data, not from the text of the source, for most assays here: actives have a measured Kd and inactives only a lower limit.
Note: in the data inactive means no Kd found up to 30 µM.

Sequence of Citron Rho-interacting kinase (O14578 whole entry): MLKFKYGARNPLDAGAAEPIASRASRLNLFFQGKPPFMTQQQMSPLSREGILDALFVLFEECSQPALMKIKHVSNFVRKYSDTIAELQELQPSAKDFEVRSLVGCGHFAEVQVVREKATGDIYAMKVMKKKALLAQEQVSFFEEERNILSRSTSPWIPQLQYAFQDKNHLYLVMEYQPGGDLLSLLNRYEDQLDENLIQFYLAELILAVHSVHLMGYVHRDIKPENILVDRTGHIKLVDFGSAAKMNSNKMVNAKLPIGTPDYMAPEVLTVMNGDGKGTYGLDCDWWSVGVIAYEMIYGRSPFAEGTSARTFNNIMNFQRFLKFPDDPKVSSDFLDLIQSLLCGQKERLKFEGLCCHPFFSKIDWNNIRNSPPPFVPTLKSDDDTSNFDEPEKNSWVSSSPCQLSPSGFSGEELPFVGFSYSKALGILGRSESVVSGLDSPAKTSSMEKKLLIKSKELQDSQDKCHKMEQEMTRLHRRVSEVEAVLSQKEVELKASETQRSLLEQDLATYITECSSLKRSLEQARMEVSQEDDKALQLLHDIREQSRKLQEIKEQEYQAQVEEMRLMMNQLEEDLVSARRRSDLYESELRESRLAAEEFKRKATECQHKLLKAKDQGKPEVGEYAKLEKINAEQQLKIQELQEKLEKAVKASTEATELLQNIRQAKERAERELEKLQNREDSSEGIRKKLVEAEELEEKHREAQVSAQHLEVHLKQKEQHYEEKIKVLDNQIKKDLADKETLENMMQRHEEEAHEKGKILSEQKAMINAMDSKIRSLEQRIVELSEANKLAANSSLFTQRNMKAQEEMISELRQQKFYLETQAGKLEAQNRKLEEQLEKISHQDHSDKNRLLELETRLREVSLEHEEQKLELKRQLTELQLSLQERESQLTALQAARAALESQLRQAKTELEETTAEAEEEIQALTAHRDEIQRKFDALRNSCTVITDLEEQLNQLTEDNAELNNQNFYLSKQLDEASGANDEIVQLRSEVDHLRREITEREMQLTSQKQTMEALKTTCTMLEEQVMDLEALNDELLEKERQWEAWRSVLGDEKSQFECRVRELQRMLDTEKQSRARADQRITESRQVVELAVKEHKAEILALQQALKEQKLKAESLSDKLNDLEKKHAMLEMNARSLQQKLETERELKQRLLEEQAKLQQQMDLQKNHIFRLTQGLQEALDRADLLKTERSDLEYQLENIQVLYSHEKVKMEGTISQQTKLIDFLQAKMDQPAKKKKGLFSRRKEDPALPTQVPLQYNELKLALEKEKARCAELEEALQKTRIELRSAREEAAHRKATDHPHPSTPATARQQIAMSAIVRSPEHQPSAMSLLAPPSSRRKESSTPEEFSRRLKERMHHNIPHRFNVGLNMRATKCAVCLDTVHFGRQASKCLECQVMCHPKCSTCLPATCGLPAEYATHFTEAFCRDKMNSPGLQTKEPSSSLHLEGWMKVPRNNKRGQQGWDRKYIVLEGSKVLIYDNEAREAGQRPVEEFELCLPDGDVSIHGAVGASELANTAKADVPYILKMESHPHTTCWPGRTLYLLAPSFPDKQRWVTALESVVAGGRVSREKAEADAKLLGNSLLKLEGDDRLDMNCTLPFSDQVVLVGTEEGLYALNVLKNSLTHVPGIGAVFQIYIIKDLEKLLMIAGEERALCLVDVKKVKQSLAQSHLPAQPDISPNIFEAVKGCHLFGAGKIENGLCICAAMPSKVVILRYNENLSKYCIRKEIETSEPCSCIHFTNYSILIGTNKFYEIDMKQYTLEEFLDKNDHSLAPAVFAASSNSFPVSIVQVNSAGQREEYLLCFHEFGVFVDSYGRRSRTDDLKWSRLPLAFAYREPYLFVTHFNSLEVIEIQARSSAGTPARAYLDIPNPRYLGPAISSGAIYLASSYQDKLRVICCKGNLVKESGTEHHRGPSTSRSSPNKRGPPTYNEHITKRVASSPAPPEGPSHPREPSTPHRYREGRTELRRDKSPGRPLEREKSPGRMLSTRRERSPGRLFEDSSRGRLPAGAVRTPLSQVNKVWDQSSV
Sequence of Bone morphogenetic protein receptor type-1A (P36894 whole entry): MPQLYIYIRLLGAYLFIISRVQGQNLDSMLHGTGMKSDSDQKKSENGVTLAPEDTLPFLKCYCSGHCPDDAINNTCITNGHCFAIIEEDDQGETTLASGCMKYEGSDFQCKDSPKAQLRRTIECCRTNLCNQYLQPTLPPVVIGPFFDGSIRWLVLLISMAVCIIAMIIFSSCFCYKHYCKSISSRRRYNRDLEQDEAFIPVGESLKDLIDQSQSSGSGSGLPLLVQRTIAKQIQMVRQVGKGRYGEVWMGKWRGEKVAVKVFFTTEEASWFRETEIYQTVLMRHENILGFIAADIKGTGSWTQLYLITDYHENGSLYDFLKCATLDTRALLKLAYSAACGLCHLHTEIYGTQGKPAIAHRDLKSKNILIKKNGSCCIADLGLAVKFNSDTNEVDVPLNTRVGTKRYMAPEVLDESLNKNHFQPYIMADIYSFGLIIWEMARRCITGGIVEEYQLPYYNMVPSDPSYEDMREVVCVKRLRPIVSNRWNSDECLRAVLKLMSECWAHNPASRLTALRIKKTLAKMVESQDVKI

Turning to `CCS(=O)(=O)c1cccc(-c2cc(C(=O)NC3CCN(C)CC3)c(C)c3[nH]c4ncc(C)cc4c23)c1` [TAK-901], the Kd in assay [1] was > 30 µM (inactive); in assay [2], > 30 µM (inactive); in assay [3], 2.13 µM (active); on Ephrin type-B receptor 6, 0.451 µM; in assay [4], > 30 µM (inactive).
Turning to `CO[C@H]1C[C@@H]2CC[C@@H](C)[C@@](O)(O2)C(=O)C(=O)N2CCCC[C@H]2C(=O)O[C@H]([C@H](C)C[C@@H]2CC[C@@H](OC(=O)C(C)(CO)CO)[C@H](OC)C2)CC(=O)[C@H](C)/C=C(\C)[C@@H](O)[C@@H](OC)C(=O)[C@H](C)C[C@H](C)/C=C/C=C/C=C/1C` [TEMSIROLIMUS], the Kd (in assay [1]; in assay [2]; in assay [3]; at Ephrin type-B receptor 6; in assay [4]) was > 30 µM (inactive) each time.
Take `O=C(Cc1ccc(-c2ccc(OCCN3CCOCC3)cc2)cn1)NCc1ccccc1` [TIRBANIBULIN]: the Kd (in assay [1]; in assay [2]; in assay [3]; on Ephrin type-B receptor 6; in assay [4]) was > 30 µM (inactive) each time.
`O=C1NC(=O)[C@@H](c2cn3c4c(cccc24)CCC3)[C@@H]1c1c[nH]c2ccccc12` [TIVANTINIB]: the Kd in assay [1] was 0.232 µM; in assay [2], > 30 µM (inactive); in assay [3], > 30 µM (inactive); at Ephrin type-B receptor 6 it was > 30 µM (inactive); in assay [4] it was > 30 µM (inactive).
On to `Cc1cc(Nc2ncnc3ccc(NC4=NC(C)(C)CO4)cc23)ccc1Oc1ccn2ncnc2c1` [TUCATINIB], for which the Kd (in assay [1]; in assay [2]; in assay [3]; on Ephrin type-B receptor 6; in assay [4]) was > 30 µM (inactive) in each case.
For `C[C@@H](N)c1ccc(C(=O)Nc2ccnc3[nH]ccc23)cc1` [Y-39983], the Kd was > 30 µM (inactive) in assay [1]; 0.033 µM (active) in assay [2]; > 30 µM (inactive) in assay [3]; > 30 µM (inactive) at Ephrin type-B receptor 6; 0.34 µM in assay [4].
Turning to `CN1C/C=C/CCOc2cccc(c2)-c2ccnc(n2)Nc2cccc(c2)C1` [ZOTIRACICLIB], the Kd (in assay [1]; in assay [2]; in assay [3]; at Ephrin type-B receptor 6; in assay [4]) was > 30 µM (inactive) in each case.
